# According to patent US10105357B2, “Indication of antibiotic drugs for preparation of cancer inhibition pharmaceutical composition” (LAUNX BIOMEDICAL CO., LTD., priority 2014, dated 2018):
# Where two headings read alike, the source gives them in different places.
# Columns and labels:
# Type in all cases: cell-based, human
# [1] = system: MKN-45 (Gastric Adenocarcinoma); assay: Cell viability analysis, gastric cancer MKN-45; details: for viability at 10 µM: Homo sapiens, MKN-45, 72 h; for cell viability (survival rate), MKN-45: human, 72 h, 10 µM
# cancer cell lines = assay: Cell viability analysis (WST-1) on cancer cell lines; details: drug 10 μM, 72 hours, WST-1; Table 3
# [2] = system: AGS (Gastric Adenocarcinoma); assay: Cell viability analysis, gastric cancer AGS; details: 72 h; for viability at 10 µM: Homo sapiens
# [3] = system: TSGH-8301 (Urinary Bladder Carcinoma); assay: Cell viability analysis, bladder cancer TSGH-8301; details: 72 h; for viability at 10 µM: Homo sapiens; for cell viability (survival rate), TSGH: human, 10 µM
# [4] = system: LoVo (Colorectal Adenocarcinoma); assay: Cell viability analysis, colon cancer LoVo; details: 72 h; for viability at 10 µM: Homo sapiens, LoVo, read-out: cell viability (survival rate), LoVo, drug 10 μM, 72 hours, WST-1, OD450 nm; for cell viability (survival rate), LoVo: human, 10 µM
# [5] = system: HI650 (Lung Adenocarcinoma); assay: Cell viability analysis, lung cancer HI650; details: for viability at 10 µM: Homo sapiens, NCI-H1650, 72 h
# [6] = system: HeLa (Cervix Adenocarcinoma); assay: Cell viability analysis, cervical cancer HeLa; details: 72 h; for viability at 10 µM: Homo sapiens, HeLa
# [7] = system: HL-60 (Acute Promyelocytic Leukemia); assay: Cell viability analysis, leukemia HL-60; details: for viability at 10 µM: Homo sapiens, HL-60, 72 h
# [8] = system: HepG2 (Hepatocellular Carcinoma); assay: Cell viability analysis, hepatic cancer HepG2; details: for viability at 10 µM: Homo sapiens, HepG2, 72 h
# [9] = system: MCF7 (Mammary Gland, Adenocarcinoma); assay: Cell viability analysis, breast cancer MCF7; details: for viability at 10 µM: Homo sapiens, MCF7, 72 h
# [10] = system: A549 (Lung Adenocarcinoma); assay: Cell viability analysis, lung cancer A549; details: for viability at 10 µM: Homo sapiens, A549, 72 h; for cell viability (survival rate), A549: human, 72 h, 10 µM
# [11] = system: A375 (Amelanotic Melanoma); assay: Cell viability analysis, skin cancer A375; details: for viability at 10 µM: Homo sapiens, A-375, 72 h; for cell viability (survival rate), A375: human, 72 h, 10 µM
# [12] = system: PC3 (p53−) (Prostate Adenocarcinoma); assay: Cell viability analysis, prostate cancer PC3; details: 72 h; for viability at 10 µM: Homo sapiens; for cell viability (survival rate), PC3: human, 10 µM
# [13] = drug 10 μM, 72 hours, WST-1, OD450 nm, read-out: cell viability (survival rate), MKN-45
# [14] = drug 10 μM, 72 hours, WST-1, OD450 nm, read-out: cell viability (survival rate), AGS
# [15] = drug 10 μM, 72 hours, WST-1, OD450 nm, read-out: cell viability (survival rate), TSGH
# [16] = drug 10 μM, 72 hours, WST-1, OD450 nm, read-out: cell viability (survival rate), H1650
# [17] = drug 10 μM, 72 hours, WST-1, OD450 nm, read-out: cell viability (survival rate), HeLa
# [18] = drug 10 μM, 72 hours, WST-1, OD450 nm, read-out: cell viability (survival rate), HL-60
# [19] = drug 10 μM, 72 hours, WST-1, OD450 nm, read-out: cell viability (survival rate), HepG2
# [20] = drug 10 μM, 72 hours, WST-1, OD450 nm, read-out: cell viability (survival rate), MCF7
# [21] = drug 10 μM, 72 hours, WST-1, OD450 nm, read-out: cell viability (survival rate), A549
# [22] = drug 10 μM, 72 hours, WST-1, OD450 nm, read-out: cell viability (survival rate), A375
# [23] = drug 10 μM, 72 hours, WST-1, OD450 nm, read-out: cell viability (survival rate), PC3
# [24] = read-out: cell viability (survival rate), MKN-45, drug 10 μM, 72 hours, WST-1, OD450 nm
# [25] = read-out: cell viability (survival rate), AGS, drug 10 μM, 72 hours, WST-1, OD450 nm
# [26] = read-out: cell viability (survival rate), TSGH, drug 10 μM, 72 hours, WST-1, OD450 nm
# [27] = read-out: cell viability (survival rate), H1650, drug 10 μM, 72 hours, WST-1, OD450 nm
# [28] = read-out: cell viability (survival rate), HeLa, drug 10 μM, 72 hours, WST-1, OD450 nm
# [29] = read-out: cell viability (survival rate), HL-60, drug 10 μM, 72 hours, WST-1, OD450 nm
# [30] = read-out: cell viability (survival rate), HepG2, drug 10 μM, 72 hours, WST-1, OD450 nm
# [31] = read-out: cell viability (survival rate), MCF7, drug 10 μM, 72 hours, WST-1, OD450 nm
# [32] = read-out: cell viability (survival rate), A549, drug 10 μM, 72 hours, WST-1, OD450 nm
# [33] = read-out: cell viability (survival rate), A375, drug 10 μM, 72 hours, WST-1, OD450 nm
# [34] = read-out: cell viability (survival rate), PC3, drug 10 μM, 72 hours, WST-1, OD450 nm
Structure (SMILES),"viability at 10 µM [1, 13] [%]",inhibition effect on different cancer cell lines (cancer cell lines),"viability at 10 µM [2, 14] [%]","viability at 10 µM [3, 15] [%]",viability at 10 µM [4] [%],"viability at 10 µM [5, 16] [%]","viability at 10 µM [6, 17] [%]","viability at 10 µM [7, 18] [%]","viability at 10 µM [8, 19] [%]","viability at 10 µM [9, 20] [%]","viability at 10 µM [10, 21] [%]","viability at 10 µM [11, 22] [%]","viability at 10 µM [12, 23] [%]","viability at 10 µM [1, 24] [%]","viability at 10 µM [2, 25] [%]","viability at 10 µM [5, 27] [%]","viability at 10 µM [6, 28] [%]","viability at 10 µM [7, 29] [%]","viability at 10 µM [8, 30] [%]","viability at 10 µM [9, 31] [%]",further results
O=C(C[S+]([O-])Cc1ccco1)NC/C=C\COc1cc(CN2CCCCC2)ccn1 (stereo not drawn) [Lafutidine],89.6,significant inhibition effect,45.5,51.9,48,80.1,46.9,95.3,102,33.6,21.3,116,40.7,,,,,,,,
COc1cc(Cc2cnc(N)nc2N)cc(OC)c1OC [Trimethoprim],,significant inhibition effect,,,98.7,,,,,,,,,73.6,97.7,108,89,96.8,102,104,"viability at 10 µM [3, 26]: 92.4%; viability at 10 µM [10, 32]: 125%; viability at 10 µM [11, 33]: 83.6%; viability at 10 µM [12, 34]: 151%"
CN(C)[C@@H]1C(O)=C(C(N)=O)C(=O)[C@@]2(O)C(O)=C3C(=O)c4c(O)cccc4[C@@](C)(O)[C@H]3[C@H](O)[C@@H]12 [Oxytetracycline dihydrate],,significant inhibition effect,,,,,,,,,,,,,71.7,73.8,65.6,99.3,93.4,34.2,"cell viability (survival rate), MKN-45 [1]: 81.4; cell viability (survival rate), TSGH [3]: 53.4; cell viability (survival rate), LoVo [4]: 47.0; cell viability (survival rate), A549 [10]: 22.1; cell viability (survival rate), A375 [11]: 72.5; cell viability (survival rate), PC3 [12]: 42.1"
CC1(C)S[C@@H]2[C@H](NC(=O)[C@H](N)c3ccccc3)C(=O)N2[C@H]1C(=O)O [Ampicillin Trihydrate],,significant inhibition effect,,,,,,,,,,,,,,,,,,,"cell viability (survival rate), MKN-45 [1]: 56.3; cell viability (survival rate), AGS ([2]; human, 10 µM): 95.3; cell viability (survival rate), TSGH [3]: 61.3; cell viability (survival rate), LoVo [4]: 78.4; cell viability (survival rate), H1650 ([5]; human, 72 h, 10 µM): 63.6; cell viability (survival rate), HeLa ([6]; human, 10 µM): 59.3; cell viability (survival rate), HL-60 ([7]; human, 72 h, 10 µM): 92.7; cell viability (survival rate), HepG2 ([8]; human, 72 h, 10 µM): 92.4; cell viability (survival rate), MCF7 ([9]; human, 72 h, 10 µM): 36.5; cell viability (survival rate), A549 [10]: 41.9; cell viability (survival rate), A375 [11]: 53.7; cell viability (survival rate), PC3 [12]: 65.3"
"CCCCCCCCCCCCCCCCCCCCCCO [Docosanol (Abreva), Docosanol]",52.4,significant inhibition effect,40.6,54.8,89.4,69.3,76.9,116,83.6,39.1,44,84.6,70.2,,,,,,,,
CCCNC(=O)NS(=O)(=O)c1ccc(Cl)cc1 [Chlorpropamide],42.7,significant inhibition effect,51.2,59.1,59.3,55.8,59.9,96.7,92.5,32.5,36.9,62.1,44.4,,,,,,,,
c1ccc(-c2ccc(C(c3ccccc3)n3ccnc3)cc2)cc1 (stereo not drawn) [Bifonazole],,significant inhibition effect,,,81.1,,,,,,,,,50.5,64.3,55.9,67.2,119,109,73.3,"viability at 10 µM [3, 26]: 82.1%; viability at 10 µM [10, 32]: 79.3%; viability at 10 µM [11, 33]: 94.9%; viability at 10 µM [12, 34]: 78.2%"
Clc1ccc(CCC(Cn2ccnc2)Sc2c(Cl)cccc2Cl)cc1 (stereo not drawn) [Butoconazole nitrate],,significant inhibition effect,,,112,,,,,,,,,48.7,78.7,78.2,131,41.3,114,72.9,"viability at 10 µM [3, 26]: 86%; viability at 10 µM [10, 32]: 89.6%; viability at 10 µM [11, 33]: 102%; viability at 10 µM [12, 34]: 57.1%"
CCOc1ccc2nc3cc(N)ccc3c(N)c2c1 [Ethacridine lactate monohydrate],49.7,significant inhibition effect,38.2,46.8,50.1,52.5,39.9,44.1,65.5,68.7,75.1,40.1,64.6,,,,,,,,
